Assay [1] has as its target T1, cytoplasmic domain of the human CSF-1R (Homo sapiens, UniProt P07333).
T1 construct: Recombinant protein corresponding to the cytoplasmic domain of the human CSF-1R; purchased Invitrogen Corporation, Carlsbad, Calif; PV3249
T1 sequence (P07333 539-972 limits assumed): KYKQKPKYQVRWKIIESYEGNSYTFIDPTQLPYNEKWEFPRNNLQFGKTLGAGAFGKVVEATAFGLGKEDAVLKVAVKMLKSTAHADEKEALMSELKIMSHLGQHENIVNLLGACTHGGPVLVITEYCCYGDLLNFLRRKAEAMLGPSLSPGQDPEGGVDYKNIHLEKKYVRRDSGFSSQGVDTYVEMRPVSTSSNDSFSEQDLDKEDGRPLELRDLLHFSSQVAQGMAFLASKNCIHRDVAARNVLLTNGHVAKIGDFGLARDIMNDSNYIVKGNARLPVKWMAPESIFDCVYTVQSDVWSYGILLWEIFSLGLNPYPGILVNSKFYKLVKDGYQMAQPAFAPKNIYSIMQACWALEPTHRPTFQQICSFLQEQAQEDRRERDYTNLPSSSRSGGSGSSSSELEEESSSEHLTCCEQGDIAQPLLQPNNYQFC
In words: In vitro kinase assay for colony stimulating factor-1 receptor (AlphaScreen). Format: biochemical. As to conditions: read-out: CSF-1R percent inhibition. An outline of the steps: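 At a low ATP level of 1 μM, phosphate transfer by the cytoplasmic-domain kinase (4 nM) was quantified with an AlphaScreen anti-phosphotyrosine bead pair.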
A general note: In Alpha technology, singlet oxygen from a donor bead excites a nearby acceptor bead.

The subject of assay [2] is MNFS60 (murine AML cells). Put plainly: Cell viability assay in MCSF dependent MNFS60 cells (Cell Titer Glo). The format is cell-based. As to conditions: Mus musculus, tested at about 1 μM, read-out: M-NFS-60 CP percent inhibition. A digest of the protocol:
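Viability was read by Cell Titer Glo after 72 hrs at 37° C., 5% CO2, with triplicate conditions. Compounds were titrated 3-fold into MNFS60 cultures whose final MCSF level was 10 ng/ml. EC50 values came from curve fitting.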
In general terms: ATP-based viability assays read luminescence as a measure of living cells.

Assay [3] addresses T2, kinase domain of cKIT (Homo sapiens, UniProt P10721).
T2 construct: The kinase domain of cKIT was assayed in 50 mM Hepes; purchased Upstate 14-559
Put plainly: Inhibition of cKIT kinase signaling in an in vitro biochemical assay (alphascreen). Conditions: read-out: cKit percent inhibition.

For assay [4], the target named is T3, kinase domain of PDGFRβ (Homo sapiens, UniProt P09619).
T3 construct: The kinase domain of PDGFRβ was assayed in 50 mM Hepes; purchased Invitrogen P3082
T3 sequence (P09619 600-962 limits assumed): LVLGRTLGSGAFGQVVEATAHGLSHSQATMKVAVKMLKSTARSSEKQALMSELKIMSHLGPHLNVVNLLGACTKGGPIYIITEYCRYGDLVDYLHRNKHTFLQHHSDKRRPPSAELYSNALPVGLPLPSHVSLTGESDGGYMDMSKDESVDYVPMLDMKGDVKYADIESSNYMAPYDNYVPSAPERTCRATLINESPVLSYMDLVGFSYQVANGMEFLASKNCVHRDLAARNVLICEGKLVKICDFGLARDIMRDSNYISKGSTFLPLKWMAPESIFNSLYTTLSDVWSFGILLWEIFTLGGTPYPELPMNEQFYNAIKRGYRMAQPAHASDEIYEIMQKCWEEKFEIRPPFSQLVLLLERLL
In words: Inhibition of PDGFRb kinase signaling in an in vitro biochemical assay (alphascreen). As to conditions: read-out: PDGFRβ percent inhibition.

[5] abbreviates: tested at about 1 μM, compounds of Table 3.

Like-named read-outs stand apart in the source and are kept apart here.

As usually defined, the inhibition is the share of the control response that was lost under treatment.

T2 sequence (P10721 589-937 limits assumed): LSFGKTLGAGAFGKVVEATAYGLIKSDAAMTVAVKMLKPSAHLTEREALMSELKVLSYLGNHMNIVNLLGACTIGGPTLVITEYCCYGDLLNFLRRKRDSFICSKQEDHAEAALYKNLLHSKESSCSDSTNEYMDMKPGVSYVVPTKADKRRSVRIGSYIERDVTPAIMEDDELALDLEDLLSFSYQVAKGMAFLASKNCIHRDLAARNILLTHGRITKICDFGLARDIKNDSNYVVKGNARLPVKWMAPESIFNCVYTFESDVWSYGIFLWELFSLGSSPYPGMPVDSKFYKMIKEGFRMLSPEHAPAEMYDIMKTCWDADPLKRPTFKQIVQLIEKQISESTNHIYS

As for `c1ccc2c(Oc3ccc4nc(NCCN5CCOCC5)sc4c3)ccnc2c1` [Example 255, N-(2-morpholinoethyl)-6-(quinolin-4-yloxy)benzo[d]thiazol-2-amine], the inhibition at 1 µM came out at 100% in assay [1] (setting [5]), 69% in assay [2] (compounds of Table 3), 92% in assay [3] (setting [5]) and 8% in assay [4] (setting [5]).

Consider `O[C@@H]1CCCC[C@H]1Nc1nc2ccc(Oc3ccnc(-c4cncnc4)c3)cc2s1` [Example 285, (1R,2R)-2-(6-(2-(pyrimidin-5-yl)pyridin-4-yloxy)benzo[d]thiazol-2-ylamino)cyclohexanol], for which the inhibition at 1 µM in assay [1] (setting [5]) amounted to 99%; in assay [2] (compounds of Table 3), 0%; in assay [3] (setting [5]), 33%; in assay [4] (setting [5]), 8%.

For the compound `CNC(=O)c1cc(Oc2ccc3nc(NC4CC=CCC4)oc3c2)ccn1` (stereo not drawn) [Compound 70, 4-[2-(Cyclohex-3-enylamino)-benzooxazol-6-yloxy]-pyridine-2-carboxylic acid methylamide], the inhibition at 1 µM in assay [1] (tested at about 1 μM) was 99%; in assay [2] (MNFS60 cells), 0%; in assay [3] (tested at about 1 μM), 0%; in assay [4] (tested at about 1 μM), 0%.

As to `CNC(=O)c1cc(Oc2ccc3nc(NCc4ccncc4)oc3c2)ccn1` [Compound 57, 4-{2-[(Pyridin-4-ylmethyl)-amino]-benzooxazol-6-yloxy}-pyridine-2-carboxylic acid methylamide], the inhibition at 1 µM in assay [1] (tested at about 1 μM) stood at 97%; in assay [2] (MNFS60 cells) it was 35%; in assay [3] (tested at about 1 μM) it was 35%; in assay [4] (tested at about 1 μM), 3%.

Turning to `O[C@@H]1CCCC[C@H]1Nc1nc2ccc(Oc3ccnc(-c4ccc(F)cc4)c3)cc2s1` [Example 288, (1R,2R)-2-(6-(2-(4-fluorophenyl)pyridin-4-yloxy)benzo[d]thiazol-2-ylamino)cyclohexanol], the inhibition at 1 µM is 100% in assay [1] (setting [5]), 70% in assay [2] (compounds of Table 3), 78% in assay [3] (setting [5]) and 24% in assay [4] (setting [5]).

As for `OC[C@@H](Nc1nc2ccc(Oc3ccnc4ccccc34)cc2s1)c1ccccc1` [Example 235, (S)-2-phenyl-2-(6-(quinolin-4-yloxy)benzo[d]thiazol-2-ylamino)ethanol], the inhibition at 1 µM in assay [1] (setting [5]) came out at 100%; in assay [2] (compounds of Table 3), 100%; in assay [3] (setting [5]), 100%; in assay [4] (setting [5]) it was 81%.

For the compound `CNC(=O)c1cc(Oc2ccc3nc(N[C@H]4CCCN(C(=O)c5ccccc5)C4)sc3c2)ccn1` [Example 336, (S)-4-(2-(1-benzoylpiperidin-3-ylamino)benzo[d]thiazol-6-yloxy)-N-methylpicolinamide], the inhibition at 1 µM in assay [1] (tested at about 1 μM) worked out at 94%; in assay [2] (MCSF dependent MNFS60 cells) it was 17%; in assay [3] (tested at about 1 μM) it was 23%; in assay [4] (tested at about 1 μM), 14%.

Consider `CNC(=O)c1cc(Oc2ccc3nc(N[C@H]4[C@H]5CC[C@H](C5)[C@H]4CO)sc3c2)ccn1` [Example 325, 4-(2-((1S,3R,4R)-3-(hydroxymethyl)bicyclo[2.2.1]heptan-2-ylamino)benzo[d]thiazol-6-yloxy)-N-methylpicolinamide], for which the inhibition at 1 µM in assay [1] (tested at about 1 μM) was 100%; in assay [2] (MCSF dependent MNFS60 cells) it was 66%; in assay [3] (tested at about 1 μM) it was 27%; in assay [4] (tested at about 1 μM), 43%.

Regarding `CNC(=O)c1cc(Oc2ccc3nc(NCCc4cccc5c4OCCO5)oc3c2)ccn1` [Compound 123, 4-{2-[2-(2,3-Dihydro-benzo-[1,4]dioxin-5-yl)-ethylamino]-benzooxazol-6-yloxy}-pyridine-2-carboxylic acid methylamide], the inhibition at 1 µM in assay [1] (tested at about 1 μM) amounted to 99%; in assay [2] (MNFS60 cells) it was 0%; in assay [3] (tested at about 1 μM), 15%; in assay [4] (tested at about 1 μM), 2%.

On to `Cn1cc(-c2cnccc2Oc2ccc3nc(N[C@@H]4CCCC[C@H]4O)sc3c2)cn1` [Example 189], for which the inhibition at 1 µM in assay [1] (setting [5]) is 100%; in assay [2] (compounds of Table 3), 26%; in assay [3] (setting [5]), 31%; in assay [4] (setting [5]), 23%.

On to `CNC(=O)c1cc(Oc2ccc3nc(NCc4ccccc4N(C)C)sc3c2)ccn1` [Compound 144, 4-[2-(2-Dimethylamino-benzylamino)-benzothiazol-6-yloxy]-pyridine-2-carboxylic acid methylamide], for which the inhibition at 1 µM in assay [1] (tested at about 1 μM) was 99%; in assay [2] (MNFS60 cells), 100%; in assay [3] (tested at about 1 μM) it was 100%; in assay [4] (tested at about 1 μM), 100%.

As to `CNC(=O)c1cc(Oc2ccc3nc(Nc4cccc(CCN5CCOCC5)c4)oc3c2)ccn1` [Compound 74, 4-{2-[3-(2-Morpholin-4-yl-ethyl)-phenylamino]-benzo-oxazol-6-yloxy}-pyridine-2-carboxylic acid methylamide], the inhibition at 1 µM in assay [1] (tested at about 1 μM) is 100%; in assay [2] (MNFS60 cells), 14%; in assay [3] (tested at about 1 μM), 34%; in assay [4] (tested at about 1 μM) it was 31%.

Regarding `CNC(=O)c1cc(Oc2ccc3nc(N[C@@H]4CCC[C@H]4O)sc3c2)ccn1` [Example 324, 4-(2-((1R,2R)-2-hydroxycyclopentylamino)benzo[d]thiazol-6-yloxy)-N-methylpicolinamide], the inhibition at 1 µM in assay [1] (tested at about 1 μM) was 99%; in assay [2] (MCSF dependent MNFS60 cells) it was 15%; in assay [3] (tested at about 1 μM) it was 21%; in assay [4] (tested at about 1 μM), 19%.

As to `c1cncc(CNc2nc3ccc(Oc4ccnc5ccccc45)cc3s2)c1` [Example 254, N-(pyridin-3-ylmethyl)-6-(quinolin-4-yloxy)benzo[d]thiazol-2-amine], the inhibition at 1 µM in assay [1] (setting [5]) came out at 100%; in assay [2] (compounds of Table 3), 100%; in assay [3] (setting [5]), 98%; in assay [4] (setting [5]), 0%.

As to `CNC(=O)c1cc(Oc2ccc3nc(Nc4cccc(CCN5CCCCC5)c4)oc3c2)ccn1` [Compound 58, 4-{2-[3-(2-Piperidin-1-yl-ethyl)-phenylamino]-benzooxazol-6-yloxy}-pyridine-2-carboxylic acid methylamide], the inhibition at 1 µM in assay [1] (tested at about 1 μM) came out at 98%; in assay [2] (MNFS60 cells) it was 30%; in assay [3] (tested at about 1 μM) it was 48%; in assay [4] (tested at about 1 μM), 85%.

As to `O[C@@H]1CCCC[C@H]1Nc1nc2ccc(Oc3ccncc3-c3cn[nH]c3)cc2s1` [Example 188], the inhibition at 1 µM in assay [1] was determined as 100%; in assay [2] (compounds of Table 3), 38%; in assay [3], 55%; in assay [4], 35%.

Turning to `NC(=O)c1cc(Oc2ccc3nc(NCC4CCCCC4)oc3c2)ccn1` [Compound 69, 4-[2-(Cyclohexylmethyl-amino)-benzooxazol-6-yloxy]-pyridine-2-carboxylic acid amide], the inhibition at 1 µM in assay [1] (tested at about 1 μM) was determined as 100%; in assay [2] (MNFS60 cells), 0%; in assay [3] (tested at about 1 μM) it was 0%; in assay [4] (tested at about 1 μM) it was 0%.

`CNC(=O)c1cc(Oc2ccc3nc(NC4C[C@@H]5CC[C@H]4C5)sc3c2)ccn1` (stereo partly drawn) [Compound 140]: the inhibition at 1 µM came to 100% in assay [1] (setting [5]), 25% in assay [2] (compounds of Table 3), 27% in assay [3] (setting [5]) and 100% in assay [4] (setting [5]).

Consider `C[C@@H](Nc1nc2ccc(Oc3ccnc(-c4cnn(C)c4)c3)cc2s1)C1CCCCC1` [Example 354, (R)-N-(1-cyclohexylethyl)-6-(2-(1-methyl-1H-pyrazol-4-yl)pyridin-4-yloxy)benzo[d]thiazol-2-amine], for which the inhibition at 1 µM in assay [1] (tested at about 1 μM) was determined as 100%; in assay [2] (MCSF dependent MNFS60 cells), 100%; in assay [3] (tested at about 1 μM), 100%; in assay [4] (tested at about 1 μM) it was 98%.

Consider `CNC(=O)c1cc(Oc2ccc3nc(NCCC(C)C)sc3c2)ccn1` [Compound 130], for which the inhibition at 1 µM stood at 100% in assay [1] (setting [5]), 79% in assay [2] (compounds of Table 3), 90% in assay [3] (setting [5]) and 70% in assay [4] (setting [5]).

Take `CNC(=O)c1cc(Oc2ccc3nc(NCc4ccccc4Br)oc3c2)ccn1` [Compound 72, 4-[2-(2-Bromo-benzylamino)-benzooxazol-6-yloxy]-pyridine-2-carboxylic acid methylamide]: the inhibition at 1 µM was 100% in assay [1] (tested at about 1 μM), 48% in assay [2] (MNFS60 cells), 65% in assay [3] (tested at about 1 μM) and 0% in assay [4] (tested at about 1 μM).

Values taken from patent US8173689B2 (Novartis AG, priority 2006, dated 2012).
